Here are results for eight compounds from ChEMBL document CHEMBL1201862, “PubChem BioAssay data set” (2004).

In assay [1] the target is T1, Alkaline phosphatase, tissue-nonspecific isozyme (Homo sapiens, UniProt P05186).
T1 sequence (P05186 whole entry): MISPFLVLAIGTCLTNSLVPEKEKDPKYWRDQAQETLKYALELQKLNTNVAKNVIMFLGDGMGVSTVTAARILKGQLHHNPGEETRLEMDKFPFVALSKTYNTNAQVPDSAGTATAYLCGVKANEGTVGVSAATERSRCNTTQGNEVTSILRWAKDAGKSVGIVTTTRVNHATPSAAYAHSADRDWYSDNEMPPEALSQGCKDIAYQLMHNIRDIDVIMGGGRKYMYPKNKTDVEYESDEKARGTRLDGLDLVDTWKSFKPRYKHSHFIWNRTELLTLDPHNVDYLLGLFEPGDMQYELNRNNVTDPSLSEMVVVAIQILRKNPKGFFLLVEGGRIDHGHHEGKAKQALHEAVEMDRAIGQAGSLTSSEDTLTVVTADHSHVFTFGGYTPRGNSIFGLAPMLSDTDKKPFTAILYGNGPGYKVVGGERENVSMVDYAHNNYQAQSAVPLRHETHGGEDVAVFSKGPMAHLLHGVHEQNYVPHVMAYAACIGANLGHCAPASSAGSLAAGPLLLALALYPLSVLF

The nature of assay [2]: microbe, parasite or virus in culture. It is filed as functional. As to conditions: Mycobacterium tuberculosis.
Another assay can be described thus: cells. It is filed as functional.
Another assay addresses Large T antigen (Simian virus 40, UniProt P03070). It is filed as functional, Betapolyomavirus macacae.
The target in assay [3] is DNA dC->dU-editing enzyme APOBEC-3A (Homo sapiens, UniProt P31941). Put plainly: A3A deaminase inhibition for selectivity – biochemical, dose response (AID 504722). The assay is classed as functional.
Assay [4] concerns the target DNA dC->dU-editing enzyme APOBEC-3G (Homo sapiens, UniProt Q9HC16). The assay is described as follows: Dose Response confirmation of small molecule APOBEC3G DNA Deaminase Inhibitors via a fluorescence-based single-stranded DNA deaminase assay. [Related pubchem assays (depositor defined):AID493012, AID493028]. The assay is classed as functional.
In assay [5] the target is T2, Rac GTPase-activating protein 1 (Homo sapiens, UniProt Q9H0H5).
T2 sequence (Q9H0H5 whole entry): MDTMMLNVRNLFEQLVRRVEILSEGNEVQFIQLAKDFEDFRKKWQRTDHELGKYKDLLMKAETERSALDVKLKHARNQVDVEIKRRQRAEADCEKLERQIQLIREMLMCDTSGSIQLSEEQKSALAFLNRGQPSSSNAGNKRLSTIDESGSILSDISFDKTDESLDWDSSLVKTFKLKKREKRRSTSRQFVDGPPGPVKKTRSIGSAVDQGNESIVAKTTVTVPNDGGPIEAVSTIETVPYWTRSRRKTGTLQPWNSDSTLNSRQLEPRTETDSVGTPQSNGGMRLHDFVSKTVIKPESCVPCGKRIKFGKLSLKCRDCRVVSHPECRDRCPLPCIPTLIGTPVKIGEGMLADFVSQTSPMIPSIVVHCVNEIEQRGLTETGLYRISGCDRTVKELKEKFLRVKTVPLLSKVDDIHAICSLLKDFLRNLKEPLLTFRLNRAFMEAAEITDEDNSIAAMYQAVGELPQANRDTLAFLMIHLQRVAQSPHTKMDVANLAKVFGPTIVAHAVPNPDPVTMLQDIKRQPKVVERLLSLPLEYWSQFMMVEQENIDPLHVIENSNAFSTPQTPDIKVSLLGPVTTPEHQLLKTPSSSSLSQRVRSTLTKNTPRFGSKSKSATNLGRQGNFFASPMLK
The assay is described as follows: blockers of MgcRacGAP-driven Rac1 GTP hydrolysis – biochemical, ADP Hunter fluorescence, primary and confirmatory, confirmation (AID 624330). The assay is classed as functional.

Assay [6] addresses T3, Eukaryotic translation initiation factor 2-alpha kinase 3 (Homo sapiens, UniProt Q9NZJ5).
T3 sequence (Q9NZJ5 whole entry): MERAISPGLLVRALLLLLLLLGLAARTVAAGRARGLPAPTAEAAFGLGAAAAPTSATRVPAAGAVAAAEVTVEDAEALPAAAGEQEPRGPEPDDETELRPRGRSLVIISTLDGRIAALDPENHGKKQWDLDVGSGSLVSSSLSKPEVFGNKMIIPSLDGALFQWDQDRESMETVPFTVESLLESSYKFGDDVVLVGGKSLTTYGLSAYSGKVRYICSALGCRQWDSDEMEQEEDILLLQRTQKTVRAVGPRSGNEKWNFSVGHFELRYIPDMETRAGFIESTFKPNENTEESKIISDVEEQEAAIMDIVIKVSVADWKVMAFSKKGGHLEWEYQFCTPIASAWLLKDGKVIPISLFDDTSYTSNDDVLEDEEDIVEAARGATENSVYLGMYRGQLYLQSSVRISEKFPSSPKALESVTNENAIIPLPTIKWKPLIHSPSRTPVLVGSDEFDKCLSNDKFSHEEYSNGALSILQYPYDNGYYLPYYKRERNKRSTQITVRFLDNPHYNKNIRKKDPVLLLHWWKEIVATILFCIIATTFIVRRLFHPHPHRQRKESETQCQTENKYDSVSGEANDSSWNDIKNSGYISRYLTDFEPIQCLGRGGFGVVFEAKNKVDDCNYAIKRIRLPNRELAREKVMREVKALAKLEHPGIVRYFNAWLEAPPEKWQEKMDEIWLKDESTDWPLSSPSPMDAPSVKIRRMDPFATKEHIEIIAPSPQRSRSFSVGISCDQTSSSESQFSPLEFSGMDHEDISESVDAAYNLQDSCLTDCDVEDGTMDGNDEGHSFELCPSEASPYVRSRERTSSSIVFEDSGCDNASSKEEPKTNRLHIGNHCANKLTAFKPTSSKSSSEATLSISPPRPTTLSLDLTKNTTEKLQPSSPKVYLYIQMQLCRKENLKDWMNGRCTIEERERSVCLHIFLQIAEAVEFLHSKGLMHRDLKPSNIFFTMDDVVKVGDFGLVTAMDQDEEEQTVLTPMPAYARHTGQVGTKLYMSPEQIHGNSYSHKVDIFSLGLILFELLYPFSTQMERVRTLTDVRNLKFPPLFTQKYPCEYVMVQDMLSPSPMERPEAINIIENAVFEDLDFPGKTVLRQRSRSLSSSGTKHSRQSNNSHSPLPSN
Put plainly: Dose response cell-based high-throughput screening assay to measure PERK inhibition. [Related pubchem assays: 1416 ]. It is filed as functional.

In assay [7] the target is T3, Eukaryotic translation initiation factor 2-alpha kinase 3. Put plainly: Counterscreen assay for PERK inhibitors: Dose response cell-based high throughput screening assay to measure inhibition of PERK at 6 hours. [Related pubchem assays: 1522, 1416 ]. It is filed as functional.
Assay [8] deals with HEK293. The assay is described as follows: inhibition of NOD1-driven NF-kB reporter – cell-based, luminescence, uHTS, primary screen (AID 1578). The assay is classed as functional. As to conditions: Homo sapiens.
Assay [9] deals with HEK293. Put plainly: cells. The assay is classed as functional, cell-based. As to conditions: Homo sapiens.
The subject of assay [10] is HEK293. Put plainly: cells. It is filed as functional, cell-based. As to conditions: Homo sapiens. The source holds these as a separate data set.
Assay [11] concerns the target Nucleotide-binding oligomerization domain-containing protein 2 (Homo sapiens, UniProt Q9HC29). The assay is described as follows: inhibition of NOD2-driven NF-kB reporter – cell-based, luminescence, uHTS, HEK293 (AID 1566). The assay is classed as functional.
Assay [12] deals with HEK293. The assay is described as follows: NOD2 signaling inhibitors in MDP-stimulated cells, cell-based, uHTS, luminescence (AID 2001). Conditions: Homo sapiens. It is filed as functional.
Assay [13] deals with HEK293. Put plainly: cells. As to conditions: Homo sapiens. It is filed as functional, cell-based. This is another data set of the same source.
Assay [14] addresses T4, Replicative DNA helicase DnaB (Mycobacterium tuberculosis, UniProt P9WMR3).
T4 sequence (P9WMR3 whole entry): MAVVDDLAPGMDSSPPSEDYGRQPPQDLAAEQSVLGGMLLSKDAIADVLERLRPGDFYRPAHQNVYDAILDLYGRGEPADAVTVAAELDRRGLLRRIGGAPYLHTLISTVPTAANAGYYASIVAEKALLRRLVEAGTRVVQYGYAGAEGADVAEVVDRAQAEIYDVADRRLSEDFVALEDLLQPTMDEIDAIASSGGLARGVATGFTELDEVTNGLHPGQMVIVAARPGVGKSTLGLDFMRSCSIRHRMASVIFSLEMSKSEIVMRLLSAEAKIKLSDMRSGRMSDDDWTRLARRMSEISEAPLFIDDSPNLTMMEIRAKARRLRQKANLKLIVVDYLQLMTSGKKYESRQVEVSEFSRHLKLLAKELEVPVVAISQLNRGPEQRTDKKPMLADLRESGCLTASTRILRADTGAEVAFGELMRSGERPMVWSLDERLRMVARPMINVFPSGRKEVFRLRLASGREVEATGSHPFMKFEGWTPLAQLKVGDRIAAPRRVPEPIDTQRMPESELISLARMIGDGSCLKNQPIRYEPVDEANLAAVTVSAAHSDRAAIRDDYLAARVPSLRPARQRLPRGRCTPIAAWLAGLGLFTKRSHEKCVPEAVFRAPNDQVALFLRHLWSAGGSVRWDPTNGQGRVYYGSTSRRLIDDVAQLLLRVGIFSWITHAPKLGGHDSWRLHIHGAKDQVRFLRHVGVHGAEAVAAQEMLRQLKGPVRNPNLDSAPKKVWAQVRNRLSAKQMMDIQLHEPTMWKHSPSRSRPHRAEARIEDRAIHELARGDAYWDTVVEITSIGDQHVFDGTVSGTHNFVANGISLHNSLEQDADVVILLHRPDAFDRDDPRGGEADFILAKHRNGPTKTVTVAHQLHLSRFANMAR
The assay is described as follows: DnaB intein splicing inhibitors, dose response, biochemical, cell-free fluorescence (AID 449749). It is filed as functional.

The next assay has as its target T5, Protein RecA (Mycobacterium tuberculosis, UniProt P9WHJ3).
T5 sequence (P9WHJ3 whole entry): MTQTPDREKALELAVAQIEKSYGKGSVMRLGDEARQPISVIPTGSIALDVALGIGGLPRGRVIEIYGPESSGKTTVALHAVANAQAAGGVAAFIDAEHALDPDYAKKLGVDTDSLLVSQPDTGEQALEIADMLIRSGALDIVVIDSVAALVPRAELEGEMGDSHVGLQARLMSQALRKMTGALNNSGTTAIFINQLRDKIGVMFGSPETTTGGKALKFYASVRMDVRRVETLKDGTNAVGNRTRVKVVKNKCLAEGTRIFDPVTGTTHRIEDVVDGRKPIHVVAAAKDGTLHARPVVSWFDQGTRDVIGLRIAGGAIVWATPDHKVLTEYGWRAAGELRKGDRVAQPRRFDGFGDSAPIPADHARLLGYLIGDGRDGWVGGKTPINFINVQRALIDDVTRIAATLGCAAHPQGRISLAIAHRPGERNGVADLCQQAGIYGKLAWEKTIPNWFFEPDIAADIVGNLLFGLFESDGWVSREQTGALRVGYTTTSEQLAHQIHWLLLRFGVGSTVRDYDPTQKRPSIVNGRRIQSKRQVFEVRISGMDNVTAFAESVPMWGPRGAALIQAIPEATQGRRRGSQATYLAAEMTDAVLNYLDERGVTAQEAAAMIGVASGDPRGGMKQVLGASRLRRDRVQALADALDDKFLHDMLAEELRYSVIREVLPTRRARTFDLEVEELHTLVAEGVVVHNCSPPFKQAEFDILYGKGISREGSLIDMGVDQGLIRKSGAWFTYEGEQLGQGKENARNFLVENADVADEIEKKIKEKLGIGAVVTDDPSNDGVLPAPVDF
The assay is described as follows: Fluorescence Cell-Free Homogeneous Dose Retest to Identify Inhibitors of RecA-Intein Splicing Activity. [Related pubchem assays (depositor defined):AID2097, AID2223, AID489010, AID492950]. The assay is classed as functional.

The target of a further assay is T6, CAAX prenyl protease 2 (Saccharomyces cerevisiae S288c, UniProt Q03530).
T6 sequence (Q03530 whole entry): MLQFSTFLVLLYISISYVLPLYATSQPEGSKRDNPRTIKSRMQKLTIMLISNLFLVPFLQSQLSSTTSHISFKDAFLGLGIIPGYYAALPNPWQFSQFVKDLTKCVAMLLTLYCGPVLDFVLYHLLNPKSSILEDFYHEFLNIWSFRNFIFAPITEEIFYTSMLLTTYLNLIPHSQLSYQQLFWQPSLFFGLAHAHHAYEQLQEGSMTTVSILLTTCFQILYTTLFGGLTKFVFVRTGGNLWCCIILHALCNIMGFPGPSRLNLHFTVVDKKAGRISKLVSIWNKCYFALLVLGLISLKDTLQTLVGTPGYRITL
The assay is classed as biochemical.

In another assay the target is Fatty acid synthase (Homo sapiens, UniProt P49327). Put plainly: inhibition of human FAS-TE enzyme activity – biochemical, kinetic fluorescence intensity, dose response (AID 624326).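 Also: rate of fluorescence rise from hydrolysis of a fluorogenic O-methyl fluorescein ester substrate.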 It is filed as functional.

The structures appear in SMILES notation. The source made the active and inactive calls.

Chain of DNA dC->dU-editing enzyme APOBEC-3A (P31941 whole entry): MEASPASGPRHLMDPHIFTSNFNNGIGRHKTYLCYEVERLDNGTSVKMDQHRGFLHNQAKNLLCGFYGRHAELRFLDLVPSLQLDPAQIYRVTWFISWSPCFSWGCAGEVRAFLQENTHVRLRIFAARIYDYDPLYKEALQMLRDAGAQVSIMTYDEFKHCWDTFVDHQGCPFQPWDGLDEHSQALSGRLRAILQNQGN
Chain of DNA dC->dU-editing enzyme APOBEC-3G (Q9HC16 whole entry): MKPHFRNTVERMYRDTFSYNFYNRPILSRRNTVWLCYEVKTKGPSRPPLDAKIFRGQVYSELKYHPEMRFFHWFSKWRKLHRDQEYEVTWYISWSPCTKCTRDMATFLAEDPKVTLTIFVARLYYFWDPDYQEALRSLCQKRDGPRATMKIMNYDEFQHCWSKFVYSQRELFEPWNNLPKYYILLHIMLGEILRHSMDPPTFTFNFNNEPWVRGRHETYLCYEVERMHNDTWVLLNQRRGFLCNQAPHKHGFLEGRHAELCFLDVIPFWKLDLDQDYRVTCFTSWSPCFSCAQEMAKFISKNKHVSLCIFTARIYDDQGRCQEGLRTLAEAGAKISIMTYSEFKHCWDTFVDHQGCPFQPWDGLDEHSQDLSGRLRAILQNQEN
Chain of Nucleotide-binding oligomerization domain-containing protein 2 (Q9HC29 whole entry, the tested form may be a part): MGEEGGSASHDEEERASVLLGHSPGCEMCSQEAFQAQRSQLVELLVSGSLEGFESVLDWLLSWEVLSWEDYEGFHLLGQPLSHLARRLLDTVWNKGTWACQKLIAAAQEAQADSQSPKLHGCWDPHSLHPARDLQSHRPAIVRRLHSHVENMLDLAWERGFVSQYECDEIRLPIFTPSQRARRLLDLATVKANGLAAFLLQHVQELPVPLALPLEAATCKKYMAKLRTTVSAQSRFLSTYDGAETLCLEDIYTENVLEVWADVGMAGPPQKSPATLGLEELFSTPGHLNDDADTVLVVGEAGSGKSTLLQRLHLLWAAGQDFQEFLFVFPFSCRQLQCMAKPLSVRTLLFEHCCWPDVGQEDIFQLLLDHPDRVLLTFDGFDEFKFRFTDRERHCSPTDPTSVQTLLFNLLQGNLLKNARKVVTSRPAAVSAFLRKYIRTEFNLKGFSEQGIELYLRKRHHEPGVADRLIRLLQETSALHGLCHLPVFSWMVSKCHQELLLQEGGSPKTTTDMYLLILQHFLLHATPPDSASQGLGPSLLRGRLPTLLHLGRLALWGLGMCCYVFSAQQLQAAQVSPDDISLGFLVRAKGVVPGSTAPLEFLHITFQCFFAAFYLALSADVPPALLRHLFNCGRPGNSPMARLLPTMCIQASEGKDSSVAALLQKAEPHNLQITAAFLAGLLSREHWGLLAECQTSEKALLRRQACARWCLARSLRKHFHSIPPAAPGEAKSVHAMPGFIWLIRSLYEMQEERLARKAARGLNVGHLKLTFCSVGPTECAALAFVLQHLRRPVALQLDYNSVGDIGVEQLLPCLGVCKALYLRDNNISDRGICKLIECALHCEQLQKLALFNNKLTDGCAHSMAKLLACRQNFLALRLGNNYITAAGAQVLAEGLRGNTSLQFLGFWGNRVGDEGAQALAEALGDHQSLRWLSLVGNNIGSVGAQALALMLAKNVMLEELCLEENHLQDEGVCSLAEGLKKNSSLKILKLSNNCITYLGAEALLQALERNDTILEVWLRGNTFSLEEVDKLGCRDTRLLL
Chain of Fatty acid synthase (P49327 whole entry): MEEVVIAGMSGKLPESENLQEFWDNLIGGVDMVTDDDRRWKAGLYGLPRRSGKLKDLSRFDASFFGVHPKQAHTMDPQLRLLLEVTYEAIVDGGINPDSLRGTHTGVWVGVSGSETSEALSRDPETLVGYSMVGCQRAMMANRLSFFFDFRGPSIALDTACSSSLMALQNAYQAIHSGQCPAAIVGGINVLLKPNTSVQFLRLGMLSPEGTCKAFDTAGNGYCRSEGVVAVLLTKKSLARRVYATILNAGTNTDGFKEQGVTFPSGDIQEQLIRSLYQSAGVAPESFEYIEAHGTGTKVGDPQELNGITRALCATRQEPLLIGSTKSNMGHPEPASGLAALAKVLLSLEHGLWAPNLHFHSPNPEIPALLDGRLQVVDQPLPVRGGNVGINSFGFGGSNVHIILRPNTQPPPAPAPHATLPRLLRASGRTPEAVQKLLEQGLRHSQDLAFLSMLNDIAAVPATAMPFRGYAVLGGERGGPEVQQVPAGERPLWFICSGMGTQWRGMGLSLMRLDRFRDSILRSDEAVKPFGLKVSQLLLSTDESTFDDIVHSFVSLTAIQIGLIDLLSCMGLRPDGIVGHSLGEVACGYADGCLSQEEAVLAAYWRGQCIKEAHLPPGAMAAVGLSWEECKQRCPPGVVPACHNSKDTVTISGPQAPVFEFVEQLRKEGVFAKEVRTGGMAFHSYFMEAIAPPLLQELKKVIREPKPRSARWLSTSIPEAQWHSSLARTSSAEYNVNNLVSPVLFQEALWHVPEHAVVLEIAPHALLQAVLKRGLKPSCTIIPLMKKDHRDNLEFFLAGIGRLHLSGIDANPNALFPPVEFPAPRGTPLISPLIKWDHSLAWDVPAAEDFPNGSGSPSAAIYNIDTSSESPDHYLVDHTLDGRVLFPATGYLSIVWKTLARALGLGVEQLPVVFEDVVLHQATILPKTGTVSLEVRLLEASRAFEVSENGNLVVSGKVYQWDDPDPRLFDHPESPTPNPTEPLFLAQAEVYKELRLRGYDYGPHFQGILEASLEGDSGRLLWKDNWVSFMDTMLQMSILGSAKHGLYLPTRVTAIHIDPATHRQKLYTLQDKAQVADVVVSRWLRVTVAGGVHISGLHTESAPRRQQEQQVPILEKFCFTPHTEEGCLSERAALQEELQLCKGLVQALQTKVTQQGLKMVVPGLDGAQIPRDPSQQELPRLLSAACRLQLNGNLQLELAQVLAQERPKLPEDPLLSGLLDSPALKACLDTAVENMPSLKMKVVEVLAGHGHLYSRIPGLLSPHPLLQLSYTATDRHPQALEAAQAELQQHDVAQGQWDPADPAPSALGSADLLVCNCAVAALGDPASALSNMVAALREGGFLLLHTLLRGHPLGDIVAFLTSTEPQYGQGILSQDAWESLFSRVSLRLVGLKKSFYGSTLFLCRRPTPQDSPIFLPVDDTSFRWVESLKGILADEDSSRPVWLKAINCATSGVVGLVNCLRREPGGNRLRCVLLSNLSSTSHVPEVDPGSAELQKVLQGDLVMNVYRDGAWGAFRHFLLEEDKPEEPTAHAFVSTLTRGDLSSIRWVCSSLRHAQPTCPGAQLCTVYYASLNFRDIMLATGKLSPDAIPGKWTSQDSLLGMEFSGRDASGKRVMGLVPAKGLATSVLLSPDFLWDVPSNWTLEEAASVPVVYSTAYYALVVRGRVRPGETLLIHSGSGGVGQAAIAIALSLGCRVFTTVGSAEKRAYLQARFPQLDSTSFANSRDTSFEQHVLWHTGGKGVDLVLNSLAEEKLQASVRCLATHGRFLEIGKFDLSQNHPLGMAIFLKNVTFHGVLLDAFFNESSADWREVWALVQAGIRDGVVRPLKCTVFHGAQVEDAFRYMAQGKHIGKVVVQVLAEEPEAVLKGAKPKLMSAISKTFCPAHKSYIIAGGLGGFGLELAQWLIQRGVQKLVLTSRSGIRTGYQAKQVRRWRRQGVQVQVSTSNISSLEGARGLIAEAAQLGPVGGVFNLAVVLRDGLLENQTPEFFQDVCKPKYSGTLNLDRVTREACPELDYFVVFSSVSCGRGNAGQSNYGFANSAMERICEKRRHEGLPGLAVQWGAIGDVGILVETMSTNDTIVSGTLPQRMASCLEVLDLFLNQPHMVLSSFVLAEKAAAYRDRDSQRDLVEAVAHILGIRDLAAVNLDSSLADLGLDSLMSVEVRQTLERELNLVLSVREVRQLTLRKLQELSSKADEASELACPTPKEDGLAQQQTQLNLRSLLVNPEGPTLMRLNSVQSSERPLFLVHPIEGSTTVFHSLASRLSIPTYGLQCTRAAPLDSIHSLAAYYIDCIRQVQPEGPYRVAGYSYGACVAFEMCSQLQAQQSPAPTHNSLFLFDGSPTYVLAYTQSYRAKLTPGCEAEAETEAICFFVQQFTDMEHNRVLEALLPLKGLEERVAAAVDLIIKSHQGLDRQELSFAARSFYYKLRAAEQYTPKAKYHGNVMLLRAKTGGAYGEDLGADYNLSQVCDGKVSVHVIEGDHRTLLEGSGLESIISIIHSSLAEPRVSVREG
Chain of Large T antigen (P03070 whole entry): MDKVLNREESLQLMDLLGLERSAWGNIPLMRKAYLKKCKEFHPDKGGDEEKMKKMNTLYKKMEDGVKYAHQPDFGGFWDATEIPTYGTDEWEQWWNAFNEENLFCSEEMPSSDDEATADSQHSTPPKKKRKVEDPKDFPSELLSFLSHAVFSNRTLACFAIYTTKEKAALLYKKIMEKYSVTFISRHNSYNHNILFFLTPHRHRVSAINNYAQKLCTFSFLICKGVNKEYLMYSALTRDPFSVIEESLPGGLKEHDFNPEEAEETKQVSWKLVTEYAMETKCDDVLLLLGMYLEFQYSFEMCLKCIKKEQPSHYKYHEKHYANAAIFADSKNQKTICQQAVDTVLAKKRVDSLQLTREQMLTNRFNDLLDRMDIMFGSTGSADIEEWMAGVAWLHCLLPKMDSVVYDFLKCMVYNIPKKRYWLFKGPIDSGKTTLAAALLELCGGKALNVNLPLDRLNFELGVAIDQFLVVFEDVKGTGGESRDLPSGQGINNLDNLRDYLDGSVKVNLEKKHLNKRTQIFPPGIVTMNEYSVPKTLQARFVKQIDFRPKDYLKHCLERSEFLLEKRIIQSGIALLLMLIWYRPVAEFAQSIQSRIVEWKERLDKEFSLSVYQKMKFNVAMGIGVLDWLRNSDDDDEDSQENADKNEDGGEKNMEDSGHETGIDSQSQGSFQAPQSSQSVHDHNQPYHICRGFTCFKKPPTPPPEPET

Take `CCCCN1C(=O)C2(NNc3ccccc3O2)c2ccccc21` (stereo unspecified): in assay [1], the EC50 is < 0.195 µM (not active). The CC50 in [2] was > 40 µM (active). Further, in “cells”, the IC50 was 36.5 µM (active).
`Cc1cc(-c2nnc(S)n2/N=C/c2cccs2)[nH]n1`: the IC50 on Large T antigen is 55 µM (active); in [3], > 100 µM (inactive); in assay [4], 2.9 µM (active); in assay [5] it was 87.8 µM (active).
As for `CC(=O)Nc1ccc(NC(=O)Nc2cc(C)cc(C)c2)cc1`, the half-maximal effective concentration (EC50) in [6] and in [7] was > 55.7 µM (not active) in each case.
For the compound `CC(C)(C)NS(=O)(=O)c1cccc2nsnc12`, the EC50 in [6] and in assay [7] was > 55.7 µM (not active) in each case.
With `O=C(Cc1ncon1)Nc1ccc(F)c(F)c1F`, the EC50 in assay [6] and in assay [7] was > 55.7 µM (not active) each time.
Consider `COc1ccc(-n2nc3c(c2NC(=O)CCl)CSC3)cc1`, for which the EC50 was 13.1 µM (active) in the assay with HEK293 [8], > 20 µM (inactive) in [11] and > 380 µM (inconclusive) on Protein RecA. Also, the IC50 was 7.89 µM (active) with HEK293 [9], > 20 µM (inactive) with HEK293 [10], 14.8 µM (inactive) with HEK293 [12] and > 20 µM (inactive) in the assay with HEK293 [13]. Also, the CC50 in assay [2] was 18 µM (active). In addition, the AC50 in assay [14] was 13.6 µM (active).
With `O=S(=O)(c1ccc(-c2csc(Nc3ccc(F)cc3)n2)cc1)N1CCCC1`, on CAAX prenyl protease 2, the AC50 is 19.8 µM (active). The IC50 on Fatty acid synthase was 15.2 µM (active).
`S=c1nc(-c2ccccc2)n(-c2ccccc2)[nH]1`: the IC50 in [3] was > 100 µM (inactive); in assay [4] it was 7.02 µM (active).
